Measured values taken from ChEMBL document CHEMBL1155823, “The effect of 5-alkyl modification on the biological activity of pyrrolo[2,3-d]pyrimidine containing classical and nonclassical antifolates as inhibitors of dihydrofolate reductase and as antitumor and/or antiopportunistic infection agents” (J Med Chem, 2008).
pIC50: −log10 of the molar value.

Tests used:
[1] = molecular target: T1, Bifunctional dihydrofolate reductase-thymidylate synthase (Toxoplasma gondii) (UniProt Q07422); test: Inhibition of Toxoplasma gondii thymidylate synthase at >[…] uM
T1 sequence (whole entry): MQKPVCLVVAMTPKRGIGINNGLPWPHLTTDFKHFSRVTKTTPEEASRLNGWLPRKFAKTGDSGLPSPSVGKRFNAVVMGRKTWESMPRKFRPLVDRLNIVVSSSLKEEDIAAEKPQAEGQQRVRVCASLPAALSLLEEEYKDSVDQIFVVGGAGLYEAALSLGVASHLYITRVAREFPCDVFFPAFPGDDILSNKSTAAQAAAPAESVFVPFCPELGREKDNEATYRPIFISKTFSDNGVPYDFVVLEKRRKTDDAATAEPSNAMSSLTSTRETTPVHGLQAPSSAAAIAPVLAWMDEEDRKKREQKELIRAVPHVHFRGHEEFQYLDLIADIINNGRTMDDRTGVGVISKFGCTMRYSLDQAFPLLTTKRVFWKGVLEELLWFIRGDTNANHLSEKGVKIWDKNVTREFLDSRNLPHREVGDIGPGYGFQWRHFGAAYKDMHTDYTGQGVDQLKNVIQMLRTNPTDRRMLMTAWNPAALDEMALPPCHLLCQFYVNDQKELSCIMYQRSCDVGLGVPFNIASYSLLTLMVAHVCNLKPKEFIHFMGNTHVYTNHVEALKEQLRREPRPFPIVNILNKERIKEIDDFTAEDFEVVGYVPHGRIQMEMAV

[2] = molecular target: T2, Bifunctional dihydrofolate reductase-thymidylate synthase (Toxoplasma gondii, UniProt Q07422); test: Inhibition of Toxoplasma gondii thymidylate synthase
T2 sequence (Q07422 whole entry): T1 sequence (whole entry)

[3] = molecular target: T3, Dihydrofolate reductase (Homo sapiens, UniProt P00374)
T3 sequence (P00374 whole entry): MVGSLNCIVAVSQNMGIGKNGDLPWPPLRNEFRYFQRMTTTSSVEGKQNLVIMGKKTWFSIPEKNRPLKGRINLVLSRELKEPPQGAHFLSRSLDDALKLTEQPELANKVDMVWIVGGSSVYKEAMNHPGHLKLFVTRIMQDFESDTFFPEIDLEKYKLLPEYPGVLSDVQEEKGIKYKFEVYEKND

[4] = molecular target: T4, Thymidylate synthase (Homo sapiens, UniProt P04818); test: Inhibition of human thymidylate synthase
Target sequence in this assay (P04818 whole entry): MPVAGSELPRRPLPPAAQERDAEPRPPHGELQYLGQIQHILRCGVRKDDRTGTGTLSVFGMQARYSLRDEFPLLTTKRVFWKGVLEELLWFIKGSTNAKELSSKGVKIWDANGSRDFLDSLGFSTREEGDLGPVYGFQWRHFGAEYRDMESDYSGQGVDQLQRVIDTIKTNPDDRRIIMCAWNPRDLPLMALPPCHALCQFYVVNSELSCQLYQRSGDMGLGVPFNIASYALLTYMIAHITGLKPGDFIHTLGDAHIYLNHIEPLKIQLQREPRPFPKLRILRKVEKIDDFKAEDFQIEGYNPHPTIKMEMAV

[5] = molecular target: T2, Bifunctional dihydrofolate reductase-thymidylate synthase; test: Inhibition of Toxoplasma gondii dihydrofolate reductase
[6] = molecular target: T4, Thymidylate synthase; test: Inhibition of human thymidylate synthase at >23 uM
Target sequence in this assay (P04818 2-313 limits assumed): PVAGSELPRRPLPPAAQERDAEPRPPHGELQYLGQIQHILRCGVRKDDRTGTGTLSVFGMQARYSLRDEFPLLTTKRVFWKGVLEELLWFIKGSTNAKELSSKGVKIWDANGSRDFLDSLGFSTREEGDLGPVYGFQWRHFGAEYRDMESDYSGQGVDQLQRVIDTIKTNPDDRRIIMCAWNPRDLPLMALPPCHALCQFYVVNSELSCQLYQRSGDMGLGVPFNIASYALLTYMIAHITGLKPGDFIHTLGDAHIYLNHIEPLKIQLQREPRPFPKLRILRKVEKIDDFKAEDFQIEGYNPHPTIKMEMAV

[7] = molecular target: Thymidylate synthase (Escherichia coli, UniProt C3SWJ7); test: Inhibition of Escherichia coli thymidylate synthase
[8] = molecular target: T5, Dihydrofolate reductase (Rattus norvegicus, UniProt Q920D2)
T5 sequence (Q920D2 whole entry): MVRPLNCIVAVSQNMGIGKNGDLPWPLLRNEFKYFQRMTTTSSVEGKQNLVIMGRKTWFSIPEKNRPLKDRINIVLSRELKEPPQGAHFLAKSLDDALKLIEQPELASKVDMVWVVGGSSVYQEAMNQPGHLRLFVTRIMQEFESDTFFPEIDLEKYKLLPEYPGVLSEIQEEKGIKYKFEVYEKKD

[9] = molecular target: Thymidylate synthase (Escherichia coli) (UniProt C3SWJ7); test: Inhibition of Escherichia coli thymidylate synthase at >[…] uM
[10] = molecular target: T6, Dihydrofolate reductase (Pneumocystis carinii, UniProt P16184)
T6 sequence (P16184 whole entry): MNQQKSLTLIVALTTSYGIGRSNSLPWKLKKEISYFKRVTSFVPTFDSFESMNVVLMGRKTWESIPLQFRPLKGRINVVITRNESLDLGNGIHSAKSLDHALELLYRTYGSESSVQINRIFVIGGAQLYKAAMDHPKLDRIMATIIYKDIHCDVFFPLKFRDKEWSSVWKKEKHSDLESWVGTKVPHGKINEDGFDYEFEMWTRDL
Description: (§1) Inhibition of Pneumocystis carinii DHFR using dihydrofolic acid substrate and NADPH cofactor

[11] = test system: NCI-H460; test: cells; details: Homo sapiens
Description: Cytotoxicity against human NCI-H460 cells

[12] = test system: LOX IMVI; test: cells; details: Homo sapiens
Description: Cytotoxicity against human LOXIMVI cells

[13] = test system: MOLT-4; test: cells; details: Homo sapiens
Description: Cytotoxicity against human MOLT4 cells

[14] = test system: SW-620; test: cells; details: Homo sapiens
Description: Cytotoxicity against human SW620 cells

[15] = test system: K562; test: cells; details: Homo sapiens
Description: Cytotoxicity against human K562 cells

[16] = test system: HT-29; test: cells; details: Homo sapiens
Description: Cytotoxicity against human HT29 cells

[17] = cells; details: Homo sapiens, HL-60
Description: Cytotoxicity against human HL60(TB) cells

[18] = test system: SF-268; test: cells; details: Homo sapiens
Description: Cytotoxicity against human SF268 cells

[19] = test system: MCF7; test: cells; details: Homo sapiens
Description: Cytotoxicity against human MCF7 cells

[20] = test system: CAKI-1; test: cells; details: Homo sapiens
Description: Cytotoxicity against human CAKI1 cells

[21] = test system: ACHN; test: cells; details: Homo sapiens
Description: Cytotoxicity against human ACHN cells

[22] = test system: PC-3; test: cells; details: Homo sapiens
Description: Cytotoxicity against human PC3 cells

[23] = test system: 786-0; test: cells; details: Homo sapiens
[24] = molecular target: T7, Dihydrofolate reductase (Homo sapiens) (UniProt P00374); test: Inhibition of human dihydrofolate reductase at >[…] uM
T7 sequence (whole entry): T3 sequence (P00374 whole entry)

[25] = molecular target: Dihydrofolate reductase (Pneumocystis carinii) (UniProt P16184); test: Inhibition of Pneumocystis carinii DHFR at […] using dihydrofolic acid substrate and NADPH cofactor
[26] = molecular target: T4, Thymidylate synthase; test: Inhibition of human thymidylate synthase at >[…] uM
Target sequence in this assay (P04818 2-313 limits assumed): as the sequence (P04818 2-313 limits assumed) above

[27] = molecular target: T6, Dihydrofolate reductase; remark: listed apart in the source
Description: as §1

[28] = molecular target: T7, Dihydrofolate reductase (Homo sapiens); test: Inhibition of human dihydrofolate reductase at >28 uM
[29] = molecular target: T5, Dihydrofolate reductase; remark: listed apart in the source

Thymidylate synthase (Escherichia coli), sequence (C3SWJ7 1-264): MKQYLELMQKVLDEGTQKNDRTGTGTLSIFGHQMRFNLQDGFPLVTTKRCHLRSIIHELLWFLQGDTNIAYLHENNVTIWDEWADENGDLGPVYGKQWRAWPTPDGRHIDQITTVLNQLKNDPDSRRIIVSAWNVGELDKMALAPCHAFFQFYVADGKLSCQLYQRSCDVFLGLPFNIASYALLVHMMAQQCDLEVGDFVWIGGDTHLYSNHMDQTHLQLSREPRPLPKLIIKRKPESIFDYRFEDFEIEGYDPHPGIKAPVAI
Thymidylate synthase (Escherichia coli, UniProt C3SWJ7), sequence (C3SWJ7 whole entry): as the sequence (C3SWJ7 1-264) above

SMILES	inhibition [1]	pIC50 [2]	pIC50 [3]	pIC50 [4]	pIC50 [5]	pIC50 [7]	pIC50 [8]	inhibition [9]	pIC50 [10]	inhibition [26]	also measured
COc1ccc(Sc2[nH]c3nc(N)nc(N)c3c2C(C)C)cc1OC	0%	< 5.64	4.57	< 4.64	5.57	< 5.64	5.34	0%	4.55		inhibition [6]: 0%
CCCc1c(Sc2ccc(C(=O)N[C@@H](CCC(=O)O)C(=O)O)cc2)[nH]c2nc(N)nc(N)c12							7.22		8.51		GI50 [11]: 0.267 µM; GI50 [12]: < 0.01 µM; GI50 [13]: 19.4 µM; GI50 [14]: 1.21 µM; GI50 [15]: 0.952 µM; GI50 [16]: 9.58 µM; GI50 [17]: 1.28 µM; GI50 [18]: 1.61 µM; GI50 [19]: 0.164 µM; GI50 [20]: 0.376 µM; GI50 [21]: 15.2 µM; GI50 [22]: > 100 µM; GI50 [23]: 0.0128 µM
CCCc1c(Sc2ccc3ccccc3c2)[nH]c2nc(N)nc(N)c12		< 4.82	< 4.82	< 4.92	6.82	< 4.92	5.42			0%	inhibition [24]: 30%; inhibition [25]: 16%; pIC50 [27]: 5.46
CC(C)c1c(Sc2cccc3ccccc23)[nH]c2nc(N)nc(N)c12	0%	< 4.92	< 4.54	< 4.92	6.92	< 4.92	6.04		6.17	0%	
CCCc1c(Sc2c(C)cccc2C)[nH]c2nc(N)nc(N)c12			5.52	< 4.62		< 4.62	5.61		5.27		
CCCc1c(Sc2cccc3ccccc23)[nH]c2nc(N)nc(N)c12	16%	< 4.92	< 4.54	< 4.92	7.24	< 4.92	5.19		5.07	0%	
CCCc1c(Sc2ccc(OC)c(OC)c2)[nH]c2nc(N)nc(N)c12		< 4.96	< 4.59	< 4.96	6.00	< 4.96	5.46	0%	5.07	0%	inhibition [24]: 35%
CCCc1c(Sc2cc(OC)ccc2OC)[nH]c2nc(N)nc(N)c12	0%		< 4.55			< 4.92	5.05		4.98	0%	inhibition [28]: 13%
CCc1c(Sc2ccccc2)[nH]c2nc(N)nc(N)c12											pIC50 [27]: 4.66; pIC50 [29]: 5.25
CCCc1c(Sc2c(Cl)cccc2Cl)[nH]c2nc(N)nc(N)c12			5.59	< 4.66		< 4.66	5.23	0%	5.27		
CC(C)c1c(Sc2ccccc2)[nH]c2nc(N)nc(N)c12	0%	< 5.57	4.80	< 4.57	7.19	< 5.57	5.70	0%	4.95	0%	
